Test [1] concerns chorioallantoic membrane (CAM). In words: Chorioallantoic membrane (CAM) assay, VEGF-derived angiogenesis. It counts as in vivo, chick. The settings on record: for angiogenesis inhibiting effects: VEGF-treated CAM, summary of Table 1, 6a compared with SU4312, batimastat and α-tocopherol. As to the method: To examine angiogenesis inhibiting effects in vivo, CAM assay was performed (Nguyen Metal., Microvascular Res., 47, pp 31-40, 1994). Hen's fertile eggs were incubated at a temperature of 37° C. and in relative humidity 55%, and on the 10th day after the incubation, an air sac site was punched by using a hypodermic needle (Greencross Medical Science Corp, Korea) to form a first hole, and then, a planar site of the fertile egg where a window was to be formed was punched to form a second hole. Air was removed through the first pore of the air sac site to allow the chorioallantoic membrane (CAM) to be separated from the shell of the fertile egg, and this site was cut by using a grinding wheel (Multipro 395JA, Dremel, Mexico) to form a window. […] Through the window, the filter disc was placed on blood vessels, which were then treated with the compounds each dissolved in dimethylsulfoxide (DMSO) and diluted with phosphate buffer solution (PBS) at various concentrations. 3 days after the treatment with the compounds, the CAM site with the filter disc placed thereon was separated, and then washed with a phosphate buffer solution, and an image thereof was obtained by using a stereomicroscope (Stemi SV6 stereomicroscope, Carl Zeiss, Germany) and image-Pro Plus software (Media Cybernetics; Silver Spring, Md., U.S.A.) to count the number of blood vessel branches, and the obtained results were assayed.

In test [2] the test system is HUVEC cells. The test can be described thus: VEGF-derived ROS scavenging ability (DCF-DA fluorescence). It is filed as cell-based. The settings on record: HUVEC pretreated 3 hours, then VEGF 15 minutes, compared to VEGF, FIG. 5. As to the method: DCF-DA (2′,7′-dichlorofluorescein diacetate) was used to measure a VEGF-derived ROS scavenging ability in HUVEC cells. When ROS exists in cells, DCF-DA is oxidized into fluorescent DCF, thereby emitting green fluorescent light. 1×10^5 concentration of HUVEC was spread onto a 0.2% gelatin coated 8-well plate, and then incubated for 24 hours. The cells were pretreated with Compounds 6a or 6i for 3 hours and then, treated with VEGF for 15 minutes, and then, washed three times with PBS (pH 7.4), and then, 10 μM of DCF-DA was added to EBM-2 medium, which was then placed in dark condition for 30 minutes. Then, the cells were washed three times with PBS, and a degree of intracellular fluorescence was measured by using a fluorescent microscope.

Test [3] relates to A549 lung cancer cells. In words: Oncogenesis-derived angiogenesis and tumor growth on CAM inoculated with A549 lung cancer cells. Particulars: A549 cells 1.5×10^6 cell/CAM, various concentrations, five days after inoculation; FIG. 4. It is filed as in vivo, chick. As for the experimental part: Hen's fertile eggs were incubated, and on the 9th day, a window was formed in the same manner as in Experimental Example 1, and instead of a disc, A549 lung cancer cells were mixed with matrigel at a ratio of 1:1, and then the cells were treated with Compounds 6a and 6i and inoculated at a concentration of 1.5×10^6 cell/CAM. Five days after the inoculation, the CAM site where tumors developed was separated and washed with a phosphate buffer solution, and then, an image thereof was obtained by using a stereomicroscope (Stemi SV6 stereomicroscope, Carl Zeiss, Germany) and Image-Pro Plus software (Media Cybernetics; Silver Spring, Md., U.S.A.) to count the number of blood vessel branches, and the results were assayed.

Where [4] appears, read: Gallus gallus, 72 h, VEGF (50 ng/CAM) + 3.0 ng/CAM, 1.0 μM, 3 days after treatment, read-out: Inhibition ratio.
Setting [5] is: VEGF (50 ng/CAM) + 3.0 ng/CAM, 1.0 μM, 3 days after treatment.
Setting [6] is: Gallus gallus, 72 h, VEGF (50 ng/CAM) + 2.0 ng/CAM, 1.0 μM, 3 days after treatment, read-out: Inhibition ratio.
Where [7] appears, read: VEGF (50 ng/CAM) + 2.0 ng/CAM, 1.0 μM, 3 days after treatment.
The mark [8] stands for this setting: VEGF (50 ng/CAM) + 3.0 ng/CAM, 0.7 μM, 3 days after treatment.
The mark [9] stands for this setting: VEGF (50 ng/CAM) + 100 ng/CAM, 23 μM, 3 days after treatment.
The mark [10] stands for this setting: VEGF (50 ng/CAM) + 1.0 μg/CAM, 378 μM, 3 days after treatment.
Setting [11] is: Gallus gallus, 72 h, VEGF (50 ng/CAM) + 3.0 ng/CAM, 1.3 μM, 3 days after treatment, read-out: Inhibition ratio.
Where [12] appears, read: VEGF (50 ng/CAM) + 3.0 ng/CAM, 1.3 μM, 3 days after treatment.
Setting [13] is: Gallus gallus, 72 h, VEGF (50 ng/CAM) + 3.0 ng/CAM, 1.1 μM, 3 days after treatment, read-out: Inhibition ratio.
Setting [14] is: VEGF (50 ng/CAM) + 3.0 ng/CAM, 1.1 μM, 3 days after treatment.

Like-named read-outs stand apart in the source and are kept apart here.

Turning to `Br.Cc1nc(Nc2ccccc2)c(C)c(C)c1O` [Compound 6g-HBr, 2,4,5-trimethyl-6-(phenylamino)pyridin-3-ol hydrobromide], in test [1] (setting [4]), the inhibition in vivo at 1 µM stood at 55 ± 10.6%. Further, the “Number of blood vessel branches/main blood vessel” value in test [1] (setting [5]) is given as 28.6 ± 3.9^8.
In the case of `Cc1nc(N2CCCC2)c(C)c(C)c1O` [Compound 6m, 2,4,5-trimethyl-6-(pyrrolidin-1-yl)pyridin-3-ol], the inhibition in vivo at 1 µM in test [1] (setting [6]) is 60.5 ± 12.7%. Also, the “Number of blood vessel branches/main blood vessel” value in test [1] (setting [7]) was 27.6 ± 4.2^8. Moreover, the angiogenesis inhibiting effects entry in test [1] is listed as “excellent angiogenesis inhibiting effects”.
As to `Cc1c(C)c2c(c(C)c1O)CC[C@@](C)(CCC[C@H](C)CCC[C@H](C)CCCC(C)C)O2` [α-Tocopherol, reference compound], in test [1] (setting [8]), the Inhibition ratio is given as 45.1 ± 9.3^8 and the “Number of blood vessel branches/main blood vessel” value was found to be 32.3 ± 3.5. For the same compound, in test [1] (setting [9]), the Inhibition ratio was 64.4 ± 14.2^8 and the “Number of blood vessel branches/main blood vessel” value is 24.3 ± 2.7^8.
For `Cc1nc(Nc2ccc([N+](=O)[O-])cc2)c(C)c(C)c1O` [Compound 6i, 2,4,5-trimethyl-6-((4-nitrophenyl)amino)pyridin-3-ol], the “degree of intracellular fluorescence (VEGF-derived ROS)” value in test [2] is “substantial decrease”. The inhibition in vivo at 1 µM in test [1] (setting [4]) came out at 74.9 ± 4.9%. Also, the IC50 – broadly, the point on the concentration scale where inhibition reaches its midpoint – in test [1] (Gallus gallus, CAM treated with various concentrations, FIG. 3, read-out: IC50 with respect to angiogenesis inhibition) came to 1.8 nM. For the same compound, the “Number of blood vessel branches/main blood vessel” value in test [1] (setting [5]) is given as 26.3 ± 1.6^8. Also, in test [3], the oncogenesis-derived angiogenesis entry is listed as “inhibited” and the tumor growth entry is given as “inhibited”.
For the compound `Cc1nc(N2CCN(C)CC2)c(C)c(C)c1O` [Compound 6n, 2,4,5-trimethyl-6-(4-methylpiperazin-1-yl)pyridin-3-ol], the inhibition in vivo at 1 µM in test [1] (setting [6]) was 24.7 ± 21.3%. In addition, in test [1] (setting [7]), the “Number of blood vessel branches/main blood vessel” value was 39.8 ± 6.8^8.
Turning to `CN(C)c1ccc(/C=C2\C(=O)Nc3ccccc32)cc1` [SU4312, reference compound], in test [1] (setting [10]), the Inhibition ratio is 74.6 ± 12.1^8 and the “Number of blood vessel branches/main blood vessel” value was 24 ± 4.6^8.
For the compound `Cc1nc(N(c2ccccc2)c2ccccc2)c(C)c(C)c1O` [Compound 6l, 6-(diphenylamino)-2,4,5-trimethylpyridin-3-ol], the inhibition in vivo at 1 µM in test [1] (setting [4]) was found to be 65.4 ± 14.6%. In test [1] (setting [5]), the “Number of blood vessel branches/main blood vessel” value was 26.8 ± 4.6^8. Besides, the angiogenesis inhibiting effects result in test [1] is recorded as “excellent angiogenesis inhibiting effects”.
Take `Cc1nc(Nc2ccccc2)c(C)c(C)c1O` [Compound 6g, 2,4,5-trimethyl-6-(phenylamino)pyridin-3-ol]: in test [1] (setting [11]), the inhibition in vivo at 1.3 µM is 69.4 ± 5.7%. Besides, the “Number of blood vessel branches/main blood vessel” value in test [1] (setting [12]) is 23.3 ± 1.1^8. Moreover, in test [1], the angiogenesis inhibiting effects entry was “excellent angiogenesis inhibiting effects”.
For `Cc1nc(N(C)c2ccccn2)c(C)c(C)c1O` [Compound 6q, 2,4,5-trimethyl-6-(methyl(pyridin-2-yl)amino)pyridin-3-ol], the inhibition in vivo at 1 µM in test [1] (Gallus gallus, 72 h, VEGF (50 ng/CAM) + 2.4 ng/CAM, 1.0 μM, 3 days after treatment, read-out: Inhibition ratio) worked out at 42.2 ± 21.7%. In test [1] (VEGF (50 ng/CAM) + 2.4 ng/CAM, 1.0 μM, 3 days after treatment), the “Number of blood vessel branches/main blood vessel” value is listed as 34.2 ± 6.9^8.
Take `Cc1nc(NCc2ccccc2)c(C)c(C)c1O` [Compound 6f, 6-(benzylamino)-2,4,5-trimethylpyridin-3-ol]: the inhibition in vivo at 1.2 µM in test [1] (Gallus gallus, 72 h, VEGF (50 ng/CAM) + 3.0 ng/CAM, 1.2 μM, 3 days after treatment, read-out: Inhibition ratio) stood at 56.7 ± 16.8%. In addition, the “Number of blood vessel branches/main blood vessel” value in test [1] (VEGF (50 ng/CAM) + 3.0 ng/CAM, 1.2 μM, 3 days after treatment) was 25.8 ± 3.2^8.
For the compound `Cc1nc(Nc2ccc3c(c2)OCO3)c(C)c(C)c1O` [Compound 6k, 6-(benzo[d][1,3]dioxol-5-ylamino)-2,4,5-trimethylpyridin-3-ol], the inhibition in vivo at 1.1 µM in test [1] (setting [13]) stood at 62.4 ± 11.6%. Further, the “Number of blood vessel branches/main blood vessel” value in test [1] (setting [14]) is 25.8 ± 4.3^8. Moreover, the angiogenesis inhibiting effects entry in test [1] was “excellent angiogenesis inhibiting effects”.
Regarding `Cc1nc(NCCCO)c(C)c(C)c1O` [Compound 6d-1, 6-((3-hydroxypropyl)amino)-2,4,5-trimethylpyridin-3-ol], the inhibition in vivo at 1.4 µM in test [1] (Gallus gallus, 72 h, VEGF (50 ng/CAM) + 3.0 ng/CAM, 1.4 μM, 3 days after treatment, read-out: Inhibition ratio) was 46.3 ± 12%. Moreover, in test [1] (VEGF (50 ng/CAM) + 3.0 ng/CAM, 1.4 μM, 3 days after treatment), the “Number of blood vessel branches/main blood vessel” value is 27.8 ± 2.3^8.
For the compound `Cc1nc(NC2CCCCC2)c(C)c(C)c1O` [Compound 6e, 6-(cyclohexylamino)-2,4,5-trimethylpyridin-3-ol], in test [1] (setting [11]), the inhibition in vivo at 1.3 µM amounted to 36.8 ± 10.7%. Also, the “Number of blood vessel branches/main blood vessel” value in test [1] (setting [12]) is listed as 35.3 ± 4.0^8.
For the compound `Cc1nc(NCCCOc2nc(C)c(O)c(C)c2C)c(C)c(C)c1O` [Compound 6d-2, 6-(3-((5-hydroxy-3,4,6-trimethylpyridin-2-yl)amino)propoxy)-2,4,5-trimethylpyridin-3-ol], the inhibition in vivo at 1 µM in test [1] (Gallus gallus, 72 h, VEGF (50 ng/CAM) + 3.5 ng/CAM, 1.0 μM, 3 days after treatment, read-out: Inhibition ratio) was 67.3 ± 13.9%. In addition, the “Number of blood vessel branches/main blood vessel” value in test [1] (VEGF (50 ng/CAM) + 3.5 ng/CAM, 1.0 μM, 3 days after treatment) was 26.2 ± 4.4^8. The angiogenesis inhibiting effects result in test [1] was “excellent angiogenesis inhibiting effects”.
With `Cc1nc(N2CCOCC2)c(C)c(C)c1O` [Compound 6o, 2,4,5-trimethyl-6-morpholinopyridin-3-ol], the inhibition in vivo at 1 µM in test [1] (setting [6]) worked out at 59 ± 11%. The “Number of blood vessel branches/main blood vessel” value in test [1] (setting [7]) is reported as 28.8 ± 3.7^8.
On the same counts, the results for `Cc1nc(-n2cccc2)c(C)c(C)c1O` [Compound 6p, 2,4,5-trimethyl-6-(1H-pyrrol-1-yl)pyridin-3-ol] are 44 ± 17.2% and 33.6 ± 5.5^8.
Turning to `CCCCCCNc1nc(C)c(O)c(C)c1C` [Compound 6b, 6-(hexylamino)-2,4,5-trimethylpyridin-3-ol], in test [1] (setting [11]), the inhibition in vivo at 1.3 µM was 53.7 ± 10.3%. Besides, in test [1] (setting [12]), the “Number of blood vessel branches/main blood vessel” value was 26.3 ± 2.0^8.
As for `CCCCCCCCCCCCCCCCNc1nc(C)c(O)c(C)c1C` [Compound 6c, 6-(hexadecylamino)-2,4,5-trimethylpyridin-3-ol], the inhibition in vivo at 0.8 µM in test [1] (Gallus gallus, 72 h, VEGF (50 ng/CAM) + 3.0 ng/CAM, 0.8 μM, 3 days after treatment, read-out: Inhibition ratio) stood at 30.1 ± 20%. Moreover, the “Number of blood vessel branches/main blood vessel” value in test [1] (VEGF (50 ng/CAM) + 3.0 ng/CAM, 0.8 μM, 3 days after treatment) is 30.8 ± 3.8^8.
Regarding `CNC(=O)[C@H](Cc1ccccc1)NC(=O)[C@H](CC(C)C)[C@H](CSc1cccs1)C(=O)NO` [Batimastat, reference compound], the inhibition in vivo at 200 µM in test [1] (Gallus gallus, 72 h, VEGF (50 ng/CAM) + 1.0 μg/CAM, 200 μM, 3 days after treatment, read-out: Inhibition ratio) stood at 78.4 ± 7.4%. Also, the “Number of blood vessel branches/main blood vessel” value in test [1] (VEGF (50 ng/CAM) + 1.0 μg/CAM, 200 μM, 3 days after treatment) was 19.9 ± 2.87^8.
For the compound `Cc1nc(Nc2ccc(Br)cc2)c(C)c(C)c1O` [Compound 6j, 6-((4-bromophenyl)amino)-2,4,5-trimethylpyridin-3-ol], in test [1] (setting [4]), the inhibition in vivo at 1 µM is 61.7 ± 7.7%. Moreover, in test [1] (setting [5]), the “Number of blood vessel branches/main blood vessel” value is 30.7 ± 2.6^8.
As for `Cc1nc(Nc2ccccc2C(C)C)c(C)c(C)c1O` [Compound 6h, 6-((2-isopropylphenyl)amino)-2,4,5-trimethylpyridin-3-ol], the inhibition in vivo at 1.1 µM in test [1] (setting [13]) worked out at 55.3 ± 20.3%. For the same compound, the “Number of blood vessel branches/main blood vessel” value in test [1] (setting [14]) is on record as 28.4 ± 2.7^8.

These data come from patent publication US9452159B2, “6-aminopyridine-3-ol derivatives or pharmaceutically acceptable salts thereof, and pharmaceutical composition containing same as active ingredients for preventing or treating diseases caused by angiogenesis” (Research Cooperation Foundation of Yeungnam University, priority 2011, dated 2016).
